{"source": "the OPERA property sets (Mansouri et al. 2018)"}
{"settings": "not given", "units": {"solubility": "mM"}}
{"smiles": "Clc1cc(Cl)c2cc(Cl)ccc2c1", "logP": 5.35, "solubility": 0.000278}
{"smiles": "CCCCc1ccc(NC(=O)CN(CC(=O)O)CC(=O)O)cc1Br", "logP": 0.1}
{"smiles": "CC1COCc2cc3c(cc21)C(C)(C)C(C)C3(C)C", "note": "(stereo unspecified)", "logP": 5.9}
{"smiles": "N#CCCN(N)c1nc2cc(Cl)ccc2o1", "logP": 1.72}
{"smiles": "C=C(C)C1CC=C(C)CC1", "note": "(stereo unspecified)", "logP": 4.57}
{"smiles": "OCC1CO1", "note": "(stereo unspecified)", "logP": -0.95}
{"smiles": "CCCN(CCC)C1COc2ccc(O)cc2C1", "note": "(stereo unspecified)", "logP": 3.19}
{"smiles": "CCCCCCCCCCCCN1CCCC1=O", "logP": 4.2}
{"smiles": "NC(=O)NCCCn1nc(-c2ccccc2)ccc1=O", "logP": 0.69}
{"smiles": "CCCOC(=O)[C@@H](N)Cc1ccc(O)c(O)c1", "logP": 0.76}
{"settings": "20 °C", "units": {"solubility": "mM"}}
{"smiles": "O=C(O)Cc1ccccc1", "solubility": 122}
{"smiles": "Nc1c(Cl)cc([N+](=O)[O-])cc1Cl", "solubility": 0.0338}
{"smiles": "Clc1cccc2c1Oc1c(Cl)c(Cl)c(Cl)c(Cl)c1O2", "solubility": "3.37e-07"}
{"smiles": "C/C=C/CCC", "solubility": 0.594}
{"smiles": "COP(=S)(OC)Oc1nc(Cl)c(Cl)cc1Cl", "solubility": 0.0148}
{"smiles": "CCOP(=S)(OCC)Oc1nc(Cl)n(C(C)C)n1", "solubility": 0.324}
{"settings": "23 °C", "units": {"solubility": "mM"}}
{"smiles": "C[Si]1(C)O[Si](C)(C)O[Si](C)(C)O[Si](C)(C)O[Si](C)(C)O[Si](C)(C)O1", "solubility": "1.15e-05"}
{"settings": "23.0 °C"}
{"smiles": "c1ccc2c(c1)OCCO2", "log10 OH rate constant (cm³/molecule/s)": -10.6}
{"smiles": "CCCCOCCOCCO", "log10 OH rate constant (cm³/molecule/s)": -10.1}
{"smiles": "CCC(C)OCOC(C)CC", "note": "(stereo unspecified)", "log10 OH rate constant (cm³/molecule/s)": -10.4}
{"smiles": "CC(=O)CCC=C(C)C", "log10 OH rate constant (cm³/molecule/s)": -9.8}
{"smiles": "C=CC(C)(O)CCC=C(C)C", "note": "(stereo unspecified)", "log10 OH rate constant (cm³/molecule/s)": -9.8}
{"smiles": "CC1=CCC(=O)O1", "log10 OH rate constant (cm³/molecule/s)": -10.2}
{"settings": "24 °C", "units": {"solubility": "mM"}}
{"smiles": "O=NN1CCCCCC1", "solubility": 99.9}
{"settings": "24.0 °C"}
{"smiles": "C[Si]1(C)O[Si](C)(C)O[Si](C)(C)O[Si](C)(C)O1", "log10 OH rate constant (cm³/molecule/s)": -12}
{"smiles": "C[Si](C)(C)O[Si](C)(C)C", "log10 OH rate constant (cm³/molecule/s)": -11.9}
{"settings": "25 °C", "units": {"solubility": "mM"}}
{"smiles": "CCC(C)=NO", "solubility": 1150}
{"smiles": "CCCCCO[N+](=O)[O-]", "solubility": 2.7}
{"smiles": "CCCCOC(=O)c1ccc(C(=O)OCCCC)cc1", "solubility": 0.00341}
{"smiles": "Nc1ccn([C@H]2CC[C@@H](CO)O2)c(=O)n1", "solubility": 362}
{"smiles": "CCCCCCCCCCCCCCCC", "solubility": "3.97e-06"}
{"smiles": "Nc1ccc(-c2ccc(N)c(Cl)c2)cc1Cl", "solubility": 0.0122}
{"smiles": "CC(C)(C)Br", "solubility": 4.38}
{"smiles": "CN", "solubility": 34800}
{"smiles": "Cc1cc(Cl)ccc1O", "solubility": 28.1}
{"smiles": "Cc1ccc(CO)cc1", "solubility": 63.1}
{"smiles": "C=C(Cl)CCl", "solubility": 19.4}
{"smiles": "O=c1n(Cl)c(=O)n(Cl)c(=O)n1Cl", "solubility": 51.6}
{"smiles": "Oc1ccc(N=Nc2ccc(N=Nc3ccccc3)c3ccccc23)cc1", "solubility": 0.000979}
{"smiles": "CCCCCCCCOC(=O)COc1ccc(Cl)cc1Cl", "solubility": "9.51e-05"}
{"smiles": "C[Si](C)(C)O[Si](C)(C)C", "solubility": 0.00573}
{"smiles": "c1ccc2nc3ccccc3cc2c1", "solubility": 0.214}
{"smiles": "C=C(C)C(=O)OCC(C)C", "solubility": 9.14}
{"smiles": "CC=CC#N", "solubility": 373}
{"smiles": "CC1CO1", "note": "(stereo unspecified)", "solubility": 10200}
{"smiles": "CCOc1nc(F)cc2nc(S(=O)(=O)Nc3c(Cl)cccc3C(=O)OC)nn12", "solubility": 0.0372}
{"smiles": "CCCCC(CC)COC(=O)c1ccccc1C(=O)OCC(CC)CCCC", "note": "(stereo unspecified)", "solubility": 0.000108}
{"smiles": "N[C@@H]1[C@H]2CN(c3nc4c(cc3F)c(=O)c(C(=O)O)cn4-c3ccc(F)cc3F)C[C@@H]12", "solubility": 0.0295}
{"smiles": "CCCCN(CC)C(=O)SCCC", "solubility": 0.492}
{"smiles": "Cc1ccc2cc3ccc4ccccc4c3cc2c1", "solubility": 0.000227}
{"smiles": "CC(O)c1ccccc1", "note": "(stereo unspecified)", "solubility": 43.8}
{"smiles": "Oc1ccc(Cl)c(Cl)c1", "solubility": 56.8}
{"smiles": "C#Cc1ccccc1", "solubility": 4.46}
{"smiles": "CCC1CO1", "note": "(stereo unspecified)", "solubility": 1040}
{"smiles": "Clc1ccc(-c2ccc(Cl)c(Cl)c2Cl)cc1Cl", "solubility": "1.04e-05"}
{"smiles": "c1ccc2c(c1)[nH]c1ccccc12", "solubility": 0.0108}
{"smiles": "c1ccoc1", "solubility": 147}
{"smiles": "COc1c(Cl)ccc(Cl)c1C(=O)O", "solubility": 27.7}
{"smiles": "Cc1ccccc1C(C)C", "solubility": 0.174}
{"smiles": "CCCC(C)Cl", "note": "(stereo unspecified)", "solubility": 3.2}
{"smiles": "CC1COCc2cc3c(cc21)C(C)(C)C(C)C3(C)C", "note": "(stereo unspecified)", "solubility": 0.00677}
{"smiles": "CCC(=O)OCC(C)C", "solubility": 13.1}
{"smiles": "CCCCOP(=O)(OCCCC)Oc1ccccc1", "solubility": 0.335}
{"smiles": "C=C(C)C1CC=C(C)CC1", "note": "(stereo unspecified)", "solubility": 0.0777}
{"smiles": "COCCOC(=O)c1ccccc1C(=O)OCCOC", "solubility": 30.1}
{"smiles": "CC(C)NC(C)C", "solubility": 1090}
{"smiles": "O=[N+]([O-])c1ccc(F)cc1O", "solubility": 8.91}
{"smiles": "Cc1cccc(C)c1", "solubility": 1.52}
{"settings": "25.0 °C"}
{"smiles": "CC(C)Cl", "log10 OH rate constant (cm³/molecule/s)": -12}
{"smiles": "COCC(C)OC", "note": "(stereo unspecified)", "log10 OH rate constant (cm³/molecule/s)": -10.5}
{"smiles": "CC1OCCO1", "log10 OH rate constant (cm³/molecule/s)": -11}
{"smiles": "O=CF", "log10 OH rate constant (cm³/molecule/s)": -14.4}
{"smiles": "CC(C)[N+](=O)[O-]", "log10 OH rate constant (cm³/molecule/s)": -12.6}
{"smiles": "COC(=O)C(C)O", "note": "(stereo unspecified)", "log10 OH rate constant (cm³/molecule/s)": -11.6}
{"smiles": "FC(F)=C(F)OC(F)(F)F", "log10 OH rate constant (cm³/molecule/s)": -11.4}
{"smiles": "CCOCCOCC", "log10 OH rate constant (cm³/molecule/s)": -10.2}
{"smiles": "CC(C)(C)Cl", "log10 OH rate constant (cm³/molecule/s)": -12.4}
{"smiles": "O=CC(F)(F)F", "log10 OH rate constant (cm³/molecule/s)": -12.2}
{"settings": "27.0 °C"}
{"smiles": "Cc1cccc(O)c1O", "log10 OH rate constant (cm³/molecule/s)": -9.69}
{"settings": "30 °C", "units": {"solubility": "mM"}}
{"smiles": "ClC(Cl)c1ccccc1", "solubility": 1.55}
